Data reported in patent US20070232677A1, “Treatment and prevention of vascular hyperplasia using polyamine and polyamine analog compounds” (priority 2006, published 2007).
“Also recorded” adds a separate entry of the source.

Tests used:
[1] = test system: baboon vascular grafts (graft intimal hyperplasia); assay: Inhibition of graft intimal hyperplasia by polyamine infusion, baboon aortoiliac bypass graft model; assay type: in vivo; design: thickness of grafts, Left Proximal Ave. / thickness of grafts, Left Distal Ave. (Treated site): unit not given here; settings: for thickness of grafts, Left Distal Ave. (Treated site): left distal anastomosis infused with polyamine; for thickness of grafts, Left Distal Ave. (Treated site) / thickness of grafts, Left Proximal Ave.: pump 2.5 ul/hr for 28 days, one animal per line; for thickness of grafts, Left Proximal Ave.: polyamine-infused left graft, proximal anastomosis upstream of polyamine administration
Method: The procedure of Chen et al., Journal of Vascular Surgery 31(2):354 (2000) was used to prepare the animals. Briefly, baboons underwent bilateral aortoiliac bypass grafting with expanded polytetrafluoroethylene grafts. The distal anastomosis of one graft (the left graft) was infused with polyamine; the distal anastomosis of the contralateral graft (right graft) was infused with placebo (saline). The drugs were infused with the Alzet 2ML4 pump at a flow rate of 2.5 ul/hr for 28 days. For administration of CGC-11093, the pump contained 4.4 mg/ml (10 mM) drug and delivered 266 ug/day (7.5 mg in 28 days). For administration of CGC-11159, drug concentration was also at 10 mM; the pump delivered 646.2 ug/day (18.1 mg in 28 days). After 28 days the grafted vessels were harvested and analyzed. All anastomosis/graft samples were harvested by in vivo pressure-perfusion fixation with 10% Neutral Buffered Formalin (NBF) and fixed further overnight in 10% NBF. Samples were cut into several sections (noting proximal and distal) and marked with green dye for standard overnight processing. Processed samples were embedded in paraffin sectioned at […] intervals and stained with conventional hematoxylin and eosin (H&E). For morphometric measurements and analysis, H&E sections were imaged with a Nikon EFD-3 microscope with darkfield and polarized light epiluminescence and an RT Slider Diagnostic Camera. Graft and vessel sections were analyzed with respect to total neointimal area and maximal thickness. Morphometric analysis was performed using Image-Pro Plus 4.5 (Media Cybernetics) software. All images were digitized and archived.

[2] = test system: pig femoral AV grafts (graft vein anastomosis/proximal vein, venous neointimal hyperplasia); assay: Histopathology of PTA-injured porcine arteriovenous (AV) grafts with perivascular drug infusion; assay type: in vivo; settings: for decrease in luminal stenosis versus placebo: perivascular injections, summary of results, dose not given
Method: This example was performed to determine the effect of injections of CGC-11093 and CGC-11159 on the vasculature of pigs following arteriovenous grafting. The histopathology of reactive and inflammatory responses of pig femoral AV grafts 14 days after Mercator Microsyringe infusion with 1 mg CGC-11093 (6 sites), 10 mg CGC-11093 (2 sites), 10 mg CGC-11159 (8 sites), or placebo saline injection (8 sites) in conjunction with percutaneous transluminal angioplasty (PTA) of the graft vein anastomosis and the proximal vein was assessed.
The methods used were as follows: all graft-vein anastomosis/proximal vein (GVA/PV) sites were subjected to angioplasty and perivascular injection via Mercator Microsyringe. Angioplasty was performed and drugs were infused 14 days after graft implant; animals were sacrificed 14 days later for histopathological examination. A total of 24 GVA/PV sites were evaluated. Six sites received 1 mg of CGC-11093; two sites received 10 mg CGC-11093, eight sites received 10 mg of CGC-11159, and eight sites received placebo injection with saline. All injections were performed in conjunction with percutaneous transluminal angioplasty (PTA) of the GVA and PV.
After 14 days, the graft vein anastomosis sites (GVA/PV) were excised en bloc and perfused with formalin. Sectioning of the graft vein anastomosis was performed as follows: briefly, tissue sections were taken at approximately 5 mm intervals through the proximal vein (PV). Tissue sections were taken at approximately 3 mm intervals through the graft-vein anastomosis (GVA) site. Sections were taken at approximately […] intervals through the distal vein (DV). All tissues were routinely processed, embedded in paraffin, sectioned at 5 microns and stained with hematoxylin and eosin for histopathologic evaluation. Numerous histologic sections through each PV, DV and GVA were evaluated. Each section was labeled with the letter P, G, or D (P=proximal vein, G=graft vein anastomosis, and D=Distal vein) and with a corresponding number to indicate proximity to the graft vein anastomosis.
The histopathologic evaluation included a general description of relevant features regardirig tissue reaction and inflammation around the graft vein anastomosis (GVA) and through the proximal femoral vein (PV). Histopathologic features including inflammation, fibrosis, angiogenesis and venous neointimal hyperplasia (VNH) within the GVA and PV were assessed. Attempts were made to differentiate between histopathologic changes attributed to the surgical procedure, secondary affects of GVA, angioplasty and perivascular injection of drug via Mercator Microsyringe.
Initial histopathologic evaluation was performed on all tissues to define the common inflammatory and reactive changes in all specimens. An overall general description of changes in sections of PV and GVA was made. An estimate of the percent occlusion of the most severely affected segment in both the PV and GVA was made. Two precise, perpendicular cross sectional measurements of the lumen were made in the most severely affected section of the PV. In the GVA a single luminal diameter was measured in the most severely affected section. Next, a qualitative assessment of overall severity of VNH, as well as inflammation within the VNH and degree of angiogenesis within the VNH was made for both the PV and the GVA. Additionally, a general description of the overall perivascular tissue reaction around the PV and the GVA was recorded. Lastly, unique, and potentially significant, pathologic features were documented. Unique pathologic features generally included interpretation of the overall severity of the changes, presence or absence of an inflamed seroma, or presence of thrombosis or infection in the GVA or PV. When assessing the degree or severity of a certain histopathologic change (i.e. severity of VNH, etc) a qualitative scoring method was used. A score of 0=absent, 1=minimal, 2=mild, 3=moderate, 4=severe.

Q: How did the “thickness of grafts, Left Distal Ave. (Treated site)” value [1] turn out when `CCCCCNCCCCNCC1CC1CNCCCCNCC` (racemic) [CGC-11302, N-{2-[(4-Ethylamino-butylamino)-methyl]-cyclopropylmethyl}-N′-pentyl-butane-1,4-diamine] was run?
A: 0.822

Q: What about the “thickness of grafts, Left Proximal Ave.” value [1] of the same molecule?
A: 1.047

Q: For `CCNCCCCNCC1CC1CNCCCCNCC` (stereo not shown) [CGC-11093], which “thickness of grafts, Left Distal Ave. (Treated site)” value [1] is on record?
A: 1.072

Q: What about the “thickness of grafts, Left Proximal Ave.” value [1] of the same molecule?
A: 0.499

Q: What about the “degree of VNH angiogenesis, summary” value ([2]; 1 mg) of the same molecule?
A: minimal to absent VNH angiogenesis

Q: What about the “histopathologic features/changes, summary” value ([2]; 1 mg) of the same molecule?
A: fewer significant or potentially deleterious histopathologic features; also recorded: less severe histopathologic changes

Q: What about the “severity of VNH inflammation, summary” value ([2]; 1 mg) of the same molecule?
A: minimal VNH inflammation

Q: What about the “severity of overall VNH in PV and GVA, summary” value ([2]; 1 mg) of the same molecule?
A: minimal amount of VNH in both the PV and GVA

Q: And the “vascular occlusion, summary” value ([2]; 1 mg, compared with other animals in the study)?
A: less severe vascular occlusion than other animals in the study

Q: And the “decrease in luminal stenosis versus placebo” value [2]?
A: 49.2%

Q: What does the source list for `CCNCCCCNCC1CC1CNCCCCNCC` (stereo not shown) [CGC-11098]?
A: thickness of grafts, Left Distal Ave. (Treated site) [1]: 1.778; thickness of grafts, Left Proximal Ave. [1]: 0.938

Q: Which results are given for `CCNCCCCNCCCCNCCCCNCCCCNCCCCNCCCCNCCCCNCCCCNCCCCNCC` [CGC-11159, CH3CH2—NH—(CH2CH2CH2CH2—NH—)9—CH2CH3]?
A: decrease in average maximal thickness of hyperplasia in the vascular graft ([1]; left distal anastomosis compared with placebo-treated grafts (right proximal and distal anastomoses), 10 mM, 646.2 ug/day for 28 days): ~50%; thickness of grafts, Left Distal Ave. (Treated site) [1]: 0.336; thickness of grafts, Left Proximal Ave. [1]: 0.695; degree of VNH angiogenesis in PV and GVA, summary ([2]; 10 mg): greater degree of VNH angiogenesis in the PV and GVA; incidence of GVA/PV thrombosis ([2]; 10 mg): higher incidence of GVA/PV thrombosis; luminal diameter of PV, summary ([2]; 10 mg): more likely to have a smaller luminal diameter; perivascular tissue reaction (inflammation around the graft) ([2]; 10 mg): prominent, nodular lymphofollicular inflammation forming a rim surrounding the outside surface of the graft; also recorded: prominent, nodular to coalescing lymphocytic inflammation around the implanted graft material; also recorded: more prominent abnormal perivascular tissue reactions; severity of overall VNH in PV and GVA, summary ([2]; 10 mg): more severe VNH in both the PV and GVA; unique histopathologic features, summary ([2]; 10 mg): often developed luminal thrombosis of both the PV and GVA as well as prominent lymphofollicular inflammation surrounding the graft material; sites that developed fibrin thrombosis within the graft, with some degree of vascular and/or graft occlusion ([2]; 10 mg, eight sites treated): five of eight; luminal occlusion or stenosis of the PV and GVA, summary ([2]; 10 mg, most animals, generally associated with thrombosis of the graft): more severe luminal occlusion or stenosis of the PV and GVA; severity of VNH inflammation, summary ([2]; 10 mg, probably associated with thrombus formation): greater severity of VNH inflammation; decrease in luminal stenosis versus placebo [2]: 22.6%
